{"source": "patent US8389523B2", "about": "“Substituted quinoxaline and an agrochemical composition thereof” (Kumiai Chemical Industry Co., Ltd., priority 2007, dated 2013);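 further: grade 0 to 5 of growth suppression where 5 is 90% or more and 0 below 10%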", "test_in_all_cases": "Herbicidal effects in paddy field soil treatment (Test Example 1)", "assay_type_in_all_cases": "in vivo", "parameters_in_all_cases": "scale not given here", "conditions_in_all_cases": "paddy field soil treatment; 1000 g of the active ingredient per hectare; wettable powder added dropwise on water surface; 21st day after treatment", "key": {"[1]": {"tested_on": "Monochoria vaginalis (Burm. f.) Presl var. plantaginea (Roxb.) Solms-Laub.", "method": "(§1) Test for Herbicidal Effects in Paddy Field Soil Treatment\n(§2) A 100-cm^2 plastic pot was filled with paddy field soil. After puddling and leveling, seeds of Echinochloa oryzicola Vasing, Monochoria vaginalis (Burm. f.) Presl var. plantaginea (Roxb.) Solms-Laub., and Scirpus juncoides Roxb. var. ohwianus. T. Koyama were sowed, and the soil was waterlogged to a water depth of 3 cm. On the next day, a wettable powder formulation prepared according to Preparation Example 1 was diluted with water, and was added dropwise on the water surface. The amount of application was an amount equivalent to 1000 g of the active ingredient per hectare. Thereafter, the plants were grown in a greenhouse, and on the 21st day after the treatment, the herbicidal effects were investigated according to the criteria described in Table 138."}, "[2]": {"tested_on": "Scirpus juncoides Roxb. var. ohwianus. T. Koyama", "method": "as §1, §2"}, "[3]": {"tested_on": "Echinochloa oryzicola Vasing", "method": "as §1, §2"}}, "data": [{"smiles": "O=C1CCCC(O)=C1C(=O)c1nc2ccccc2n(Cc2ccc(Cl)cc2)c1=O", "note": "[I-113]", "values": [{"measurement": "Herbicidal effects index, Monochoria vaginalis (Burm. f.) Presl var. plantaginea (Roxb.) Solms-Laub.", "setting": "[1]", "value": 5}, {"measurement": "Herbicidal effects index, Scirpus juncoides Roxb. var. ohwianus. T. Koyama", "setting": "[2]", "value": 5}, {"measurement": "Herbicidal effects index, Echinochloa oryzicola Vasing", "setting": "[3]", "value": 5}]}, {"smiles": "COc1ccccc1Cn1c(=O)c(C(=O)C2=C(O)CCCC2=O)nc2ccccc21", "note": "[I-120]", "values": [{"measurement": "Herbicidal effects index, Monochoria vaginalis (Burm. f.) Presl var. plantaginea (Roxb.) Solms-Laub.", "setting": "[1]", "value": 5}, {"measurement": "Herbicidal effects index, Scirpus juncoides Roxb. var. ohwianus. T. Koyama", "setting": "[2]", "value": 5}, {"measurement": "Herbicidal effects index, Echinochloa oryzicola Vasing", "setting": "[3]", "value": 4}]}, {"smiles": "COc1cccc(Cn2c(=O)c(C(=O)C3=C(O)CCCC3=O)nc3ccccc32)c1", "note": "[I-125]", "values": [{"measurement": "Herbicidal effects index, Monochoria vaginalis (Burm. f.) Presl var. plantaginea (Roxb.) Solms-Laub.", "setting": "[1]", "value": 5}, {"measurement": "Herbicidal effects index, Scirpus juncoides Roxb. var. ohwianus. T. Koyama", "setting": "[2]", "value": 5}, {"measurement": "Herbicidal effects index, Echinochloa oryzicola Vasing", "setting": "[3]", "value": 4}]}, {"smiles": "COc1ccc(Cn2c(=O)c(C(=O)C3=C(O)CCCC3=O)nc3ccccc32)cc1", "note": "[I-126]", "values": [{"measurement": "Herbicidal effects index, Monochoria vaginalis (Burm. f.) Presl var. plantaginea (Roxb.) Solms-Laub.", "setting": "[1]", "value": 5}, {"measurement": "Herbicidal effects index, Scirpus juncoides Roxb. var. ohwianus. T. Koyama", "setting": "[2]", "value": 5}, {"measurement": "Herbicidal effects index, Echinochloa oryzicola Vasing", "setting": "[3]", "value": 4}]}, {"smiles": "O=C1CCCC(O)=C1C(=O)c1nc2ccccc2n(C2CCSCC2)c1=O", "note": "[I-166]", "values": [{"measurement": "Herbicidal effects index, Monochoria vaginalis (Burm. f.) Presl var. plantaginea (Roxb.) Solms-Laub.", "setting": "[1]", "value": 5}, {"measurement": "Herbicidal effects index, Scirpus juncoides Roxb. var. ohwianus. T. Koyama", "setting": "[2]", "value": 5}, {"measurement": "Herbicidal effects index, Echinochloa oryzicola Vasing", "setting": "[3]", "value": 4}]}, {"smiles": "CCNc1nc(NC(C)C)nc(-n2c(=O)c(C(=O)C3=C(O)CCCC3=O)nc3ccccc32)n1", "note": "[I-274]", "values": [{"measurement": "Herbicidal effects index, Monochoria vaginalis (Burm. f.) Presl var. plantaginea (Roxb.) Solms-Laub.", "setting": "[1]", "value": 5}, {"measurement": "Herbicidal effects index, Scirpus juncoides Roxb. var. ohwianus. T. Koyama", "setting": "[2]", "value": 4}, {"measurement": "Herbicidal effects index, Echinochloa oryzicola Vasing", "setting": "[3]", "value": 5}]}, {"smiles": "Cn1ccc2cc(-n3c(=O)c(C(=O)C4=C(O)CCCC4=O)nc4ccccc43)ccc21", "note": "[I-276]", "values": [{"measurement": "Herbicidal effects index, Monochoria vaginalis (Burm. f.) Presl var. plantaginea (Roxb.) Solms-Laub.", "setting": "[1]", "value": 5}, {"measurement": "Herbicidal effects index, Scirpus juncoides Roxb. var. ohwianus. T. Koyama", "setting": "[2]", "value": 5}, {"measurement": "Herbicidal effects index, Echinochloa oryzicola Vasing", "setting": "[3]", "value": 5}]}, {"smiles": "O=C1CCCC(O)=C1C(=O)c1nc2cc(F)ccc2n(Cc2ccccc2)c1=O", "note": "[I-280]", "values": [{"measurement": "Herbicidal effects index, Monochoria vaginalis (Burm. f.) Presl var. plantaginea (Roxb.) Solms-Laub.", "setting": "[1]", "value": 5}, {"measurement": "Herbicidal effects index, Scirpus juncoides Roxb. var. ohwianus. T. Koyama", "setting": "[2]", "value": 5}, {"measurement": "Herbicidal effects index, Echinochloa oryzicola Vasing", "setting": "[3]", "value": 5}]}, {"smiles": "CC(=O)c1ccc(-n2c(=O)c(C(=O)C3=C(O)CCCC3=O)nc3ccccc32)cc1", "note": "[II-140]", "values": [{"measurement": "Herbicidal effects index, Monochoria vaginalis (Burm. f.) Presl var. plantaginea (Roxb.) Solms-Laub.", "setting": "[1]", "value": 5}, {"measurement": "Herbicidal effects index, Scirpus juncoides Roxb. var. ohwianus. T. Koyama", "setting": "[2]", "value": 4}, {"measurement": "Herbicidal effects index, Echinochloa oryzicola Vasing", "setting": "[3]", "value": 5}]}, {"smiles": "COc1ccc(-n2c(=O)c(C(=O)C3=C(O)CCCC3=O)nc3ccccc32)cc1OC", "note": "[II-169]", "values": [{"measurement": "Herbicidal effects index, Monochoria vaginalis (Burm. f.) Presl var. plantaginea (Roxb.) Solms-Laub.", "setting": "[1]", "value": 5}, {"measurement": "Herbicidal effects index, Scirpus juncoides Roxb. var. ohwianus. T. Koyama", "setting": "[2]", "value": 5}, {"measurement": "Herbicidal effects index, Echinochloa oryzicola Vasing", "setting": "[3]", "value": 5}]}, {"smiles": "COc1ccc(-n2c(=O)c(C(=O)C3=C(O)CCCC3=O)nc3ccccc32)c(Cl)c1", "note": "[II-175]", "values": [{"measurement": "Herbicidal effects index, Monochoria vaginalis (Burm. f.) Presl var. plantaginea (Roxb.) Solms-Laub.", "setting": "[1]", "value": 5}, {"measurement": "Herbicidal effects index, Scirpus juncoides Roxb. var. ohwianus. T. Koyama", "setting": "[2]", "value": 5}, {"measurement": "Herbicidal effects index, Echinochloa oryzicola Vasing", "setting": "[3]", "value": 4}]}, {"smiles": "COc1ccc(-n2c(=O)c(C(=O)C3=C(O)CCCC3=O)nc3ccccc32)c(OC)c1", "note": "[II-177]", "values": [{"measurement": "Herbicidal effects index, Monochoria vaginalis (Burm. f.) Presl var. plantaginea (Roxb.) Solms-Laub.", "setting": "[1]", "value": 5}, {"measurement": "Herbicidal effects index, Scirpus juncoides Roxb. var. ohwianus. T. Koyama", "setting": "[2]", "value": 5}, {"measurement": "Herbicidal effects index, Echinochloa oryzicola Vasing", "setting": "[3]", "value": 4}]}, {"smiles": "COc1ccc(-n2c(=O)c(C(=O)C3=C(O)CCCC3=O)nc3ccccc32)cc1Cl", "note": "[II-179]", "values": [{"measurement": "Herbicidal effects index, Monochoria vaginalis (Burm. f.) Presl var. plantaginea (Roxb.) Solms-Laub.", "setting": "[1]", "value": 5}, {"measurement": "Herbicidal effects index, Scirpus juncoides Roxb. var. ohwianus. T. Koyama", "setting": "[2]", "value": 5}, {"measurement": "Herbicidal effects index, Echinochloa oryzicola Vasing", "setting": "[3]", "value": 4}]}, {"smiles": "COc1ccc(-n2c(=O)c(C(=O)C3=C(O)CCCC3=O)nc3cc(F)ccc32)cc1", "note": "[II-187]", "values": [{"measurement": "Herbicidal effects index, Monochoria vaginalis (Burm. f.) Presl var. plantaginea (Roxb.) Solms-Laub.", "setting": "[1]", "value": 5}, {"measurement": "Herbicidal effects index, Scirpus juncoides Roxb. var. ohwianus. T. Koyama", "setting": "[2]", "value": 5}, {"measurement": "Herbicidal effects index, Echinochloa oryzicola Vasing", "setting": "[3]", "value": 5}]}, {"smiles": "COc1ccc(-n2c(=O)c(C(=O)C3=C(O)CCCC3=O)nc3cc(Cl)ccc32)cc1", "note": "[II-195]", "values": [{"measurement": "Herbicidal effects index, Monochoria vaginalis (Burm. f.) Presl var. plantaginea (Roxb.) Solms-Laub.", "setting": "[1]", "value": 5}, {"measurement": "Herbicidal effects index, Scirpus juncoides Roxb. var. ohwianus. T. Koyama", "setting": "[2]", "value": 5}, {"measurement": "Herbicidal effects index, Echinochloa oryzicola Vasing", "setting": "[3]", "value": 5}]}]}
